Measured values reported in ChEMBL document CHEMBL1141575, “Preparation and in vitro biological evaluation of tetrapyrrole ethanolamide derivatives as potential anticancer agents” (Bioorg Med Chem Lett, 2008).

Assays:
[1] = test system: HeLa; assay: Survival of human HeLa cells at 1 uM under deem light after 96 hrs by MTT assay relative to control; format: functional; settings: read-out: Survival
[2] = test system: Raji; assay: Survival of human Raji cells at 1 uM under deem light after 96 hrs by MTT assay relative to control; format: functional; settings: read-out: Survival
[3] = test system: Raji; assay: Survival of human Raji cells at 50 uM under deem light after 96 hrs by MTT assay relative to control; format: functional; settings: read-out: Survival
[4] = test system: NCI-H69; assay: Survival of human H69 cells at 100 uM under deem light after 96 hrs by MTT assay relative to control; format: functional; settings: NCI-H69, 96 h, read-out: Survival
[5] = test system: HeLa; assay: Cytotoxicity against human HeLa cells under deem light after 96 hrs by MTT assay; format: functional, cell-based
[6] = test system: HeLa; assay: Survival of human HeLa cells at 0.1 uM under deem light after 96 hrs by MTT assay relative to control; format: functional; settings: read-out: Survival
[7] = Survival of human H209 cells at 1 uM under deem light after 96 hrs by MTT assay relative to control; format: functional; settings: NCI-H209, 96 h, read-out: Survival
[8] = test system: Raji; assay: Cytotoxicity against human Raji cells under deem light after 96 hrs by MTT assay; format: functional, cell-based
[9] = Survival of human H209 cells at 50 uM under deem light after 96 hrs by MTT assay relative to control; format: functional; settings: NCI-H209, 96 h, read-out: Survival
[10] = test system: NCI-H69; assay: Survival of human H69 cells at 50 uM under deem light after 96 hrs by MTT assay relative to control; format: functional; settings: NCI-H69, 96 h, read-out: Survival
[11] = test system: NCI-H69; assay: Survival of human H69 cells at 1 uM under deem light after 96 hrs by MTT assay relative to control; format: functional; settings: NCI-H69, 96 h, read-out: Survival
[12] = test system: SiHa; assay: Survival of human SIHA cells at 50 uM under deem light after 96 hrs by MTT assay relative to control; format: functional; settings: read-out: Survival
[13] = test system: Raji; assay: Survival of human Raji cells at 10 uM under deem light after 96 hrs by MTT assay relative to control; format: functional; settings: read-out: Survival
[14] = test system: HeLa; assay: Survival of human HeLa cells at 50 uM under deem light after 96 hrs by MTT assay relative to control; format: functional; settings: read-out: Survival
[15] = Survival of human MDA-MB cells at 1 uM under deem light after 96 hrs by MTT assay relative to control; format: functional; settings: read-out: Survival
[16] = Survival of human 2780.9S cells at 0.1 uM under deem light after 96 hrs by MTT assay relative to control; format: functional; settings: read-out: Survival
[17] = Cytotoxicity against human 2780.9S cells under deem light after 96 hrs by MTT assay; format: functional, cell-based
[18] = test system: NCI-H69; assay: Cytotoxicity against human H69 cells under deem light after 96 hrs by MTT assay; format: functional, cell-based; settings: NCI-H69, 96 h
[19] = Survival of human 2780.9S cells at 50 uM under deem light after 96 hrs by MTT assay relative to control; format: functional; settings: read-out: Survival
[20] = Photohemolysis in human RBC assessed as concentration required to 50% hemolysis under light exposure for 5 mins; format: ADME, cell-based, Erythrocyte; settings: human red blood cells, read-out: Activity
[21] = Photohemolysis in human RBC assessed as concentration required to 50% hemolysis under light exposure for 10 mins; format: ADME, cell-based, Erythrocyte; settings: human red blood cells, read-out: Activity
[22] = Photohemolysis in human RBC at 190 nM under exposure to light for 10 mins; format: ADME, cell-based, Erythrocyte; settings: human red blood cells, read-out: Activity
[23] = test system: NCI-H69; assay: Survival of human H69 cells at 0.1 uM under deem light after 96 hrs by MTT assay relative to control; format: functional; settings: NCI-H69, 96 h, read-out: Survival
[24] = Survival of human H209 cells at 10 uM under deem light after 96 hrs by MTT assay relative to control; format: functional; settings: NCI-H209, 96 h, read-out: Survival
[25] = test system: Raji; assay: Survival of human Raji cells at 100 uM under deem light after 96 hrs by MTT assay relative to control; format: functional; settings: read-out: Survival
[26] = test system: HeLa; assay: Survival of human HeLa cells at 100 uM under deem light after 96 hrs by MTT assay relative to control; format: functional; settings: read-out: Survival
[27] = test system: K562; assay: Survival of human K562 cells at 0.1 uM under deem light after 96 hrs by MTT assay relative to control; format: functional; settings: K562, 96 h, read-out: Survival
[28] = test system: K562; assay: Survival of human K562 cells at 100 uM under deem light after 96 hrs by MTT assay relative to control; format: functional; settings: K562, 96 h, read-out: Survival
[29] = Survival of human MDA-MB cells at 0.1 uM under deem light after 96 hrs by MTT assay relative to control; format: functional; settings: read-out: Survival
[30] = Survival of human H209 cells at 0.1 uM under deem light after 96 hrs by MTT assay relative to control; format: functional; settings: NCI-H209, 96 h, read-out: Survival
[31] = Photohemolysis in human RBC at 250 nM in absence of light; format: ADME, cell-based, Erythrocyte; settings: human red blood cells, read-out: Activity
[32] = Survival of human MDA-MB cells at 50 uM under deem light after 96 hrs by MTT assay relative to control; format: functional; settings: read-out: Survival
[33] = Survival of human 2780.9S cells at 100 uM under deem light after 96 hrs by MTT assay relative to control; format: functional; settings: read-out: Survival
[34] = test system: NCI-H69; assay: Survival of human H69 cells at 10 uM under deem light after 96 hrs by MTT assay relative to control; format: functional; settings: NCI-H69, 96 h, read-out: Survival
[35] = test system: SiHa; assay: Survival of human SIHA cells at 10 uM under deem light after 96 hrs by MTT assay relative to control; format: functional; settings: read-out: Survival
[36] = test system: K562; assay: Survival of human K562 cells at 50 uM under deem light after 96 hrs by MTT assay relative to control; format: functional; settings: K562, 96 h, read-out: Survival
[37] = Survival of human 2780.9S cells at 1 uM under deem light after 96 hrs by MTT assay relative to control; format: functional; settings: read-out: Survival
[38] = Cytotoxicity against human MDA-MB cells under deem light after 96 hrs by MTT assay; format: functional, cell-based
[39] = Survival of human MDA-MB cells at 100 uM under deem light after 96 hrs by MTT assay relative to control; format: functional; settings: read-out: Survival
[40] = test system: K562; assay: Survival of human K562 cells at 1 uM under deem light after 96 hrs by MTT assay relative to control; format: functional; settings: K562, 96 h, read-out: Survival
[41] = test system: Raji; assay: Survival of human Raji cells at 0.1 uM under deem light after 96 hrs by MTT assay relative to control; format: functional; settings: read-out: Survival
[42] = test system: HeLa; assay: Survival of human HeLa cells at 10 uM under deem light after 96 hrs by MTT assay relative to control; format: functional; settings: read-out: Survival
[43] = test system: K562; assay: Cytotoxicity against human K562 cells under deem light after 96 hrs by MTT assay; format: functional, cell-based; settings: K562, 96 h
[44] = test system: SiHa; assay: Survival of human SIHA cells at 100 uM under deem light after 96 hrs by MTT assay relative to control; format: functional; settings: read-out: Survival
[45] = Survival of human MDA-MB cells at 10 uM under deem light after 96 hrs by MTT assay relative to control; format: functional; settings: read-out: Survival
[46] = Survival of human H209 cells at 100 uM under deem light after 96 hrs by MTT assay relative to control; format: functional; settings: NCI-H209, 96 h, read-out: Survival
[47] = Survival of human 2780.9S cells at 10 uM under deem light after 96 hrs by MTT assay relative to control; format: functional; settings: read-out: Survival
[48] = test system: K562; assay: Survival of human K562 cells at 10 uM under deem light after 96 hrs by MTT assay relative to control; format: functional; settings: K562, 96 h, read-out: Survival
[49] = test system: Daudi; assay: Cytotoxicity against human Daudi cells under deem light after 96 hrs by MTT assay; format: functional, cell-based
[50] = test system: SiHa; assay: Cytotoxicity against human SIHA cells under deem light after 96 hrs by MTT assay; format: functional, cell-based
[51] = test system: SiHa; assay: Survival of human SIHA cells at 1 uM under deem light after 96 hrs by MTT assay relative to control; format: functional; settings: read-out: Survival

SMILES: C=Cc1c(C)c2cc3nc(c(CC(=O)OC)c4[nH]c(cc5nc(cc1[nH]2)C(C)=C5CC)c(C)c4C(=O)NCCO)C(CCC(=O)OC)C3C (stereo unspecified) [PHEOPHORBIDE A ETHANOLAMIDE]
- viability at 1 µM [1]: 114%
- viability at 1 µM [2]: 119%
- viability at 50 µM [3]: 2.5%
- viability at 100 µM [4]: 14.4%
- IC50 [5]: 35 µM
- viability at 0.1 µM [6]: 126%
- viability at 1 µM [7]: 102%
- IC50 [8]: 35 µM
- viability at 50 µM [9]: 59.4%
- viability at 50 µM [10]: 58.7%
- viability at 1 µM [11]: 101%
- viability at 50 µM [12]: 1.2%
- viability at 10 µM [13]: 121%
- viability at 50 µM [14]: 6.3%
- viability at 1 µM [15]: 121%
- viability at 0.1 µM [16]: 98.8%
- IC50 [17]: 35 µM
- IC50 [18]: 55 µM
- viability at 50 µM [19]: 1.7%
- HC50 at 5 min [20]: 80 nM
- HC50 at 10 min [21]: 140 nM
- hemolysis at 10 min, 0.19 µM [22]: 100%
- viability at 0.1 µM [23]: 95.7%
- viability at 10 µM [24]: 106%
- viability at 100 µM [25]: 3.3%
- viability at 100 µM [26]: 7.8%
- viability at 0.1 µM [27]: 129%
- viability at 100 µM [28]: 2.9%
- viability at 0.1 µM [29]: 110%
- viability at 0.1 µM [30]: 102%
- hemolysis at 0.25 µM [31]: 17%
- viability at 50 µM [32]: 1.6%
- viability at 100 µM [33]: 1.7%
- viability at 10 µM [34]: 98.4%
- viability at 10 µM [35]: 99.9%
- viability at 50 µM [36]: 6.1%
- viability at 1 µM [37]: 117%
- IC50 [38]: 35 µM
- viability at 100 µM [39]: 1.6%
- viability at 1 µM [40]: 113%
- viability at 0.1 µM [41]: 118%
- viability at 10 µM [42]: 113%
- IC50 [43]: 35 µM
- viability at 100 µM [44]: 1.1%
- viability at 10 µM [45]: 107%
- viability at 100 µM [46]: 5.2%
- viability at 10 µM [47]: 99%
- viability at 10 µM [48]: 115%
- IC50 [49]: 35 µM
- IC50 [50]: 35 µM
- viability at 1 µM [51]: 97.8%
